Measurements as given in US7973219B2, “Method for producing transgenic plants resistant to weed control compounds which disrupt the porphyrin pathways of plants” (Sumitomo Chemical Company, Limited, priority 1998, dated 2011).

Tests used:
[1] = tested on: E. coli BT3/pACYCSP+pTVCSF strain; assay: Growth of E. coli BT3/pACYCSP+pTVCSF (variant cucumber ferrochelatase) with herbicidal compound; format: cell-based, Escherichia coli; conditions: 18 hours culture, Table 13
From the text: (§1) According to the description of Gibson, L. C. D. et al., Proc. Natl. Acad. Sci. USA, 92; p 1941 (1995), the DNA fragment containing bchH gene prepared in Example 1 was digested with the restriction enzymes NdeI and BglII. The resultant DNA fragment was inserted between NdeI restriction site and BamHI restriction site of expression vector pET11a (manufactured by Stratagene) to obtain plasmid pETBCH (FIG. 1). This plasmid pETBCH was introduced into E. coli BL21(DE3) strain competent cells (manufactured by Stratagene) according to the manual attached to the competent cells to obtain E. coli BL21(DE3)/pETBCH strain. The strain was inoculated into 1.5 ml LB liquid culture medium (1% tryptone, 0.5% yeast extract, 0.5% NaCl) containing 100 μg/ml ampicillin in a tube (14×10 mm), and the tube was covered with aluminum foil (hereinafter referred to as dark conditions), cultured with shaking at 37° C. under light of fluorescent lamp (about 8000 lux). When the absorbance at 600 nm of the liquid culture medium became about 0.6, isopropyl β-D-thiogalactopyranoside (IPTG) was added to the liquid culture medium so that the final concentration was 0.4 mM, and the culture was continued for about additional 20 hours. […] In contrast to this, when E. coli BL21(DE3)/pETBCH strain was cultured according to the same manner (with IPTG) except that the tube was not covered with aluminum foil (hereinafter referred to as light conditions), E. coli grew and turned red as above.
PCR was carried out by using cucumber ferrochelatase cDNA clone isolated by the method described in Miyamoto, K. et al. Plant Physiol., 105; p 769 (1994) as a template, an oligonucleotide composed of the nucleotide sequence of SEQ ID NO: 21 and an oligonucleotide composed of the nucleotide sequence of SEQ ID NO: 22 as primers to amplify the DNA fragment encoding cucumber ferrochelatase whose signal sequence had been deleted (hereinafter referred to as the variant cucumber ferrochelatase). […]
(§2) These E. coli strains were inoculated into YPT medium containing 10 or 1 ppm of the PPO inhibitory-type herbicidal compound represented by Structure 8, 100 μg/ml ampicillin, 15 μg/ml chloramphenicol, 10 μg/ml kanamycin, 10 μg/ml hemin and 50 μg/ml aminolevulinic acid, cultured under dark conditions or light conditions according to the same manner as in Example 2. Then, 18 hours after initiation of culture, the absorbance of liquid culture medium was measured at 600 nm. By taking the absorbance of the medium without the herbicidal compound as 1, the relative value of the absorbance of the medium containing the herbicidal compound was calculated.

[2] = tested on: E. coli BT3/pACYCSP+pTVGMP strain; assay: Growth of E. coli BT3/pACYCSP+pTVGMP (variant soybean PPO) with herbicidal compound; format: cell-based, Escherichia coli; conditions: 18 hours culture, Table 7
From the text: as §1
Plasmids pTVGMP and pTV118N prepared in Example 11 were introduced into E. coli BT3/pACYCSP strain prepared in Example 3 respectively according to the method described in Flanahan, D. J., Mol. Biol., 166; p 557 (1983). E. coli BT3/pACYCSP+pTVGMP strain bearing plasmids pACYCSP and pTVGMP, and E. coli BT3/pACYCSP+pTV118N strain bearing plasmids pACYCSP and pTV118N were obtained by culturing the above strains in YPT medium containing 100 μg/ml ampicillin, 15 μg/ml chloramphenicol and 10 μg/ml kanamycin.
as §2, with “ppm of PPO inhibitory-type” for “ppm of the PPO inhibitory-type”, “8, 100 (ig/ml ampicillin, 15” for “8, 100 μg/ml ampicillin, 15”

SMILES: C#CCOc1cc(N2C(=O)C3=C(CCCC3)C2=O)c(F)cc1Cl [Structure 8]
- Relative absorbance ([1]; in the dark, 1 ppm): 0.92
- Relative absorbance ([1]; in the dark, 10 ppm): 0.89
- Relative absorbance ([1]; in the light, 1 ppm): 0.78
- Relative absorbance ([1]; in the light, 10 ppm): 0.73
- Relative absorbance ([2]; in the dark, 1 ppm): 0.94
- Relative absorbance ([2]; in the dark, 10 ppm): 0.91
- Relative absorbance ([2]; in the light, 1 ppm): 0.85
- Relative absorbance ([2]; in the light, 10 ppm): 0.33
